From ChEMBL document CHEMBL1201862, “PubChem BioAssay data set” (2004)
Values belong to the compound of their own block, whether it stands above or below them. Active and inactive are the calls of the source. Unless noted, the calls are words filed in the database; no cut-off is given here.

Legend:
[1] = biological target: T1, Sphingosine 1-phosphate receptor 4 (Homo sapiens, UniProt O95977); test: S1P4 receptor agonists, human, late-stage follow-up, cell-based, fluorescence, synthesized compounds (AID 463107); type: functional
T1 sequence (O95977 whole entry): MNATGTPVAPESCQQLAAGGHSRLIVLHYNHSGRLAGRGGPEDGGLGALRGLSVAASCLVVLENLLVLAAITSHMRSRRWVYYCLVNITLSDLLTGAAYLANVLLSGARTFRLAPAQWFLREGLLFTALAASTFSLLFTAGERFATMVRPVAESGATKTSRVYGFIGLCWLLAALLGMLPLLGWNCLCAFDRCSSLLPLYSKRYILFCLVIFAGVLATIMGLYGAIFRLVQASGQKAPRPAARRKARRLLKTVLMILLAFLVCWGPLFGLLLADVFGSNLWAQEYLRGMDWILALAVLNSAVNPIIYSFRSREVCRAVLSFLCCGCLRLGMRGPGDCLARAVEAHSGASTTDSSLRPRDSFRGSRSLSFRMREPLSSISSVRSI

[2] = biological target: Sphingosine 1-phosphate receptor 5 (Homo sapiens, UniProt Q9H228); test: (§1) Late-stage fluorescence-based dose-response cell-based assay to identify agonists of the Sphingosine 1-Phosphate Receptor 4 (S1P4): Sphingosine 1-Phosphate Receptor 5 (S1P5) counterscreen assay. [Related pubchem assays (depositor defined):AID1509, AID1523, AID1563, AID1686, AID1701, AID1801, AID463107, AID463225, AID504400]; type: functional
[3] = biological target: Sphingosine 1-phosphate receptor 3 (Homo sapiens, UniProt Q99500); test: as §1, with “3 (S1P3)” for “5 (S1P5)”; type: functional
[4] = biological target: Sphingosine 1-phosphate receptor 1 (Homo sapiens, UniProt P21453); test: as §1, with “1 (S1P1)” for “5 (S1P5)”; type: functional
[5] = biological target: Sphingosine 1-phosphate receptor 2 (Homo sapiens, UniProt O95136); test: as §1, with “2 (S1P2)” for “5 (S1P5)”; type: functional
[6] = biological target: Delta-type opioid receptor (Homo sapiens, UniProt P41143); test: SAR Analysis of Agonists of the DOR Receptor using an Image-Based Assay - Set 3. [Related pubchem assays (depositor defined):AID1777, AID1786]; type: functional
[7] = biological target: T2, Kappa-type opioid receptor (Homo sapiens, UniProt P41145); test: SAR analysis of small molecule agonists of the kappa opioid receptor via a luminescent beta-arrestin assay - Set 3. [Related pubchem assays (depositor defined):AID1777, AID1785, AID1786, AID1966, AID2133, AID2136, AID2284, AID2500]; type: functional
[8] = biological target: T2, Kappa-type opioid receptor; test: KOR agonist analogs, arrestin-GFP redistribution, SAR follow-up, imaging, image-based, set 3 (AID 488833); type: functional
[9] = biological target: Mu-type opioid receptor (Homo sapiens, UniProt P35372); test: SAR Analysis of Agonists of the MOR Receptor using an Image-Based Assay - Set 3. [Related pubchem assays (depositor defined):AID1777, AID1785, AID1786, AID1966, AID2133, AID2136, AID2284, AID2285, AID2352]; type: functional
[10] = biological target: T3, Tyrosine-protein phosphatase non-receptor type 22 (Homo sapiens, UniProt Q9Y2R2); type: functional
T3 sequence (Q9Y2R2 whole entry): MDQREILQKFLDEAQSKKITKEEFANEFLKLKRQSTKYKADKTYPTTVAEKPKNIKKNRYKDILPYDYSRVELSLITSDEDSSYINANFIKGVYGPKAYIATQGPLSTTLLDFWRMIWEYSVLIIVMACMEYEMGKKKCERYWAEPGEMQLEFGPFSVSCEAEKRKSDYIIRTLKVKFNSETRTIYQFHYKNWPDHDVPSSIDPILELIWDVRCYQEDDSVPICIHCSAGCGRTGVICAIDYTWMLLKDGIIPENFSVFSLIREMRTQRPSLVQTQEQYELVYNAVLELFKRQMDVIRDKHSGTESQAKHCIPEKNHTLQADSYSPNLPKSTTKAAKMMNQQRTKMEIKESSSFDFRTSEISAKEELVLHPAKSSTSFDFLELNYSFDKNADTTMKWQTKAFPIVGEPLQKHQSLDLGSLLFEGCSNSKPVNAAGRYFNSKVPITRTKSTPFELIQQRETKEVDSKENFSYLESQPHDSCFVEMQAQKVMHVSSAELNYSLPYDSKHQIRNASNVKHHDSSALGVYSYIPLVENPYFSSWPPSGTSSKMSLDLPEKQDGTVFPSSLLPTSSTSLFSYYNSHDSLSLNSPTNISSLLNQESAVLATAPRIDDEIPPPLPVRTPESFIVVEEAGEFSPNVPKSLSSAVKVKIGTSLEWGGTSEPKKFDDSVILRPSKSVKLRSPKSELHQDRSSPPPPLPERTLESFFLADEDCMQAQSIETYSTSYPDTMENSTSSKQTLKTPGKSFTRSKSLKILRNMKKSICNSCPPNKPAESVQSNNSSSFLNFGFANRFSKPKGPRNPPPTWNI

[11] = biological target: T4, Tyrosine-protein phosphatase non-receptor type 7 (Homo sapiens, UniProt P35236); type: functional
T4 sequence (P35236 whole entry): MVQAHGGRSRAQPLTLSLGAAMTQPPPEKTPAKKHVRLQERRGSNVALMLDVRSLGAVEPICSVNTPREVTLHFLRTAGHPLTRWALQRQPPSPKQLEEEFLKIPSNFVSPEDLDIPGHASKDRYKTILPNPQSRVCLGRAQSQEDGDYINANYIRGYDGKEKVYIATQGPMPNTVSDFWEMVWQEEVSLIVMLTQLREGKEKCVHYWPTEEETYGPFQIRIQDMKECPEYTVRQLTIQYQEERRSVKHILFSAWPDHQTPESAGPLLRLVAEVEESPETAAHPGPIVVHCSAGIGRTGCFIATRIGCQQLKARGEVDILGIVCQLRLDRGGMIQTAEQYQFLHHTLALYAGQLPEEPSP

[12] = biological target: T3, Tyrosine-protein phosphatase non-receptor type 22; type: functional; remark: listed apart in the source
[13] = biological target: Intestinal-type alkaline phosphatase (Mus musculus, UniProt P24822); test: PubChem AID 488785; type: functional
[14] = biological target: Intestinal-type alkaline phosphatase (Homo sapiens, UniProt P09923); test: activation of human intestinal alkaline phosphatase – biochemical, dose response (AID 488873); type: functional
[15] = biological target: T5, Alkaline phosphatase, tissue-nonspecific isozyme (Homo sapiens, UniProt P05186); test: TNAP enzyme inhibition by screening hits, dose response, selectivity assay for mouse IAP inhibitor project, biochemical, human TNAP, uHTS hits (AID 488906); type: functional
T5 sequence (P05186 whole entry): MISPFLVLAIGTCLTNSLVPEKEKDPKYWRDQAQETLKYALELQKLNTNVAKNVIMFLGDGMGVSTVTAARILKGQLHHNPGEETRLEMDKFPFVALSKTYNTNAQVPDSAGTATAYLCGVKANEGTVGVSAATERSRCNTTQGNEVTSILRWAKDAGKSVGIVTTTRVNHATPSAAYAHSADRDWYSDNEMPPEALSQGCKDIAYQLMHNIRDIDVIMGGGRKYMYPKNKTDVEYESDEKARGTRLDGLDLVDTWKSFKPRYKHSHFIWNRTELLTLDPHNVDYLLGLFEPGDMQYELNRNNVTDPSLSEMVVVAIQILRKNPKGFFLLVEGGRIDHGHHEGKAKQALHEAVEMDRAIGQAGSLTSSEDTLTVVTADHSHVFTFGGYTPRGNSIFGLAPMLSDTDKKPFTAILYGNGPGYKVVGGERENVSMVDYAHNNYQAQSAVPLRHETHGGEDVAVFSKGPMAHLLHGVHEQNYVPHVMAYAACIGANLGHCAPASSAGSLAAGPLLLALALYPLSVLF

[16] = biological target: T6, Zinc finger protein mex-5 (Caenorhabditis elegans, UniProt Q9XUB2); test: MEX-5/TCR-2 RNA interaction inhibitors, dose response, biochemical, C. elegans, fluorescence polarization (AID 1960)
T6 sequence (Q9XUB2 whole entry): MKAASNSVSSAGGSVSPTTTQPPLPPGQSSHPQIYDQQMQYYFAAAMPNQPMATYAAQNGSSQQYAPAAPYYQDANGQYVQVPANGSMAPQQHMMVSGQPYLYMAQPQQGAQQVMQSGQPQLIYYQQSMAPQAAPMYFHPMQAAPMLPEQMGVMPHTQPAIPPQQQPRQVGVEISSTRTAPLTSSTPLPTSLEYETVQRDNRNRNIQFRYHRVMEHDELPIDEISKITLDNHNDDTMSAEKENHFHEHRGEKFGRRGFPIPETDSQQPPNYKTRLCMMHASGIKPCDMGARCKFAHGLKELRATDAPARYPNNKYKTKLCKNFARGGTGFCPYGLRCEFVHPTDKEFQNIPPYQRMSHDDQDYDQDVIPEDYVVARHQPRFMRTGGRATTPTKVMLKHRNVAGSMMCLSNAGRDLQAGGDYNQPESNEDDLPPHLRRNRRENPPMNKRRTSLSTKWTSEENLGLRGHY

[17] = biological target: T7, RNA-binding protein pos-1 (Caenorhabditis elegans, UniProt G5EF15); test: inhibitors of POS-1/mex-3 RNA binding, dose response, biochemical, fluorescence polarization (AID 1964);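 further: purified POS-1 fused to maltose binding protein made in E. coli; potency of compounds blocking POS-1 binding to fluorescent RNA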
T7 sequence (G5EF15 whole entry): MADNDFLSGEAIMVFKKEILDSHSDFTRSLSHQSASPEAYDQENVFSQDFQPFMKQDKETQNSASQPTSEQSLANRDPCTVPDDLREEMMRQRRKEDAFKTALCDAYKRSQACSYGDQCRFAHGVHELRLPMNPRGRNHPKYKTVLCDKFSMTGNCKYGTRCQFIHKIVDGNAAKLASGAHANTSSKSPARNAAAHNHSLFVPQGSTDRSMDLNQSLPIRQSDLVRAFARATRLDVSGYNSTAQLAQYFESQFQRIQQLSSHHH

T2 sequence (P41145 whole entry): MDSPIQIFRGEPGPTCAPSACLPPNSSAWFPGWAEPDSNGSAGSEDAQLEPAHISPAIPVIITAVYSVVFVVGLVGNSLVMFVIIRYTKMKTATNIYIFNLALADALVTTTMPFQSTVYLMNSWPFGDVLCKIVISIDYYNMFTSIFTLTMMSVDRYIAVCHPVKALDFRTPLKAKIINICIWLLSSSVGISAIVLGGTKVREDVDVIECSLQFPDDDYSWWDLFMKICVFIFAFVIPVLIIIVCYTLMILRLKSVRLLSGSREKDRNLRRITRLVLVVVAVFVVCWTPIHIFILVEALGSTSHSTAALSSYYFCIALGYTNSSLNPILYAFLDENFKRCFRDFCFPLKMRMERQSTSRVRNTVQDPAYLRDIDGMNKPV
Chain of Intestinal-type alkaline phosphatase (Mus musculus, UniProt P24822) (P24822 whole entry): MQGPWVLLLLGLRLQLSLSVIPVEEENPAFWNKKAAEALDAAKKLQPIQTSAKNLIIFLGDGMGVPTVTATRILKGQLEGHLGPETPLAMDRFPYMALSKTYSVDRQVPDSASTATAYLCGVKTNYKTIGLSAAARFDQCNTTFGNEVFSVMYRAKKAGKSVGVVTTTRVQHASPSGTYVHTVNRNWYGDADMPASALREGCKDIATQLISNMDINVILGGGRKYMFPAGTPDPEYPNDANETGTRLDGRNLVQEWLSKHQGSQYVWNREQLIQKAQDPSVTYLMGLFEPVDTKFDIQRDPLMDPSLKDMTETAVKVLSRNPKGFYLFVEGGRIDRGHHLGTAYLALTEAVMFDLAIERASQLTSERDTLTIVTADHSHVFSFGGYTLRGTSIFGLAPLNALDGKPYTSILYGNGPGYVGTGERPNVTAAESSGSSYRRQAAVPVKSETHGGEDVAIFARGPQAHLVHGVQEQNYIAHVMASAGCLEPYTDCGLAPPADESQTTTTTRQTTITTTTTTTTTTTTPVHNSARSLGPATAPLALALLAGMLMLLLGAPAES
Chain of Sphingosine 1-phosphate receptor 2 (O95136 whole entry): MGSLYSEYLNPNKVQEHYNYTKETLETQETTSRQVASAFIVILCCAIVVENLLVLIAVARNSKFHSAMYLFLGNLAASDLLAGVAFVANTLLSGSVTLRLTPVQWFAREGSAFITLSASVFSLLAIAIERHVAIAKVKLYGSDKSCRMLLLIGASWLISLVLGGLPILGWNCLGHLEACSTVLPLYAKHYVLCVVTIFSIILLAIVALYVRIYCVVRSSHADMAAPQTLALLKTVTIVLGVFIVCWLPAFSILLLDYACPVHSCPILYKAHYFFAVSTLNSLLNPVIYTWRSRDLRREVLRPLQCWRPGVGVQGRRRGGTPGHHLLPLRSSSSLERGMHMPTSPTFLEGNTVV
Chain of Sphingosine 1-phosphate receptor 3 (Q99500 whole entry): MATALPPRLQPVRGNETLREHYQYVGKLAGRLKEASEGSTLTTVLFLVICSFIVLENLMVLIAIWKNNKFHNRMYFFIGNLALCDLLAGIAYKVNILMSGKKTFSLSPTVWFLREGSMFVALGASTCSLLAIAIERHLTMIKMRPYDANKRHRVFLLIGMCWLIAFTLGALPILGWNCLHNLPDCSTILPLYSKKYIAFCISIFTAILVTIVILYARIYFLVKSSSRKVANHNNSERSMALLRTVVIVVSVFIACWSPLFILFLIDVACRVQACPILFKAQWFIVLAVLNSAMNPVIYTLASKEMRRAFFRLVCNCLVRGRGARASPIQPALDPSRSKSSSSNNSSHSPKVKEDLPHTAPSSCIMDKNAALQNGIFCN
Chain of Mu-type opioid receptor (P35372 whole entry): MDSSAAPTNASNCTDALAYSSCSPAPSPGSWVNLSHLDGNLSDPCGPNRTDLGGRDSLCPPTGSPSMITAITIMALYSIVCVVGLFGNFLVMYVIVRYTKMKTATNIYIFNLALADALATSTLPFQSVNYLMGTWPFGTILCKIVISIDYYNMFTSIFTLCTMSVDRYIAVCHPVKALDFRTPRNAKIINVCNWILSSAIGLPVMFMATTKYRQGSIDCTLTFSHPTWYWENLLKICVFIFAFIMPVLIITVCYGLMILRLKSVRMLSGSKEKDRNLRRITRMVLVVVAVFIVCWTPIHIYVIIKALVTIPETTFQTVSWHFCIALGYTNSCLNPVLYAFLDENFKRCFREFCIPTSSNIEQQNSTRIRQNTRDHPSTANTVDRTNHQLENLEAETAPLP
Chain of Intestinal-type alkaline phosphatase (Homo sapiens, UniProt P09923) (P09923 whole entry): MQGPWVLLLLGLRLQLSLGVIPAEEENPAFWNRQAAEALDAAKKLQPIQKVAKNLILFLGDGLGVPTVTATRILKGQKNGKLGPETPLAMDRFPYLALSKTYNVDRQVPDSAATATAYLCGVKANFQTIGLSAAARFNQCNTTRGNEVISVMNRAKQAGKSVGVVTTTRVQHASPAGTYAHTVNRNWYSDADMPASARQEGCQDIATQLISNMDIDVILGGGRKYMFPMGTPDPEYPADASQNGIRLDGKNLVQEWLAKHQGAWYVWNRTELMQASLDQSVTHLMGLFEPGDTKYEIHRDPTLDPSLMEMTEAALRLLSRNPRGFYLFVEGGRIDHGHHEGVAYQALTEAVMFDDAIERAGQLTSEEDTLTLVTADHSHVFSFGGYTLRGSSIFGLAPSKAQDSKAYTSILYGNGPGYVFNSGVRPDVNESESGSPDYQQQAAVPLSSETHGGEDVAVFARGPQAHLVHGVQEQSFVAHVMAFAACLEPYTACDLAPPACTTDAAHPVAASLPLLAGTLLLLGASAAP
Chain of Sphingosine 1-phosphate receptor 1 (P21453 whole entry): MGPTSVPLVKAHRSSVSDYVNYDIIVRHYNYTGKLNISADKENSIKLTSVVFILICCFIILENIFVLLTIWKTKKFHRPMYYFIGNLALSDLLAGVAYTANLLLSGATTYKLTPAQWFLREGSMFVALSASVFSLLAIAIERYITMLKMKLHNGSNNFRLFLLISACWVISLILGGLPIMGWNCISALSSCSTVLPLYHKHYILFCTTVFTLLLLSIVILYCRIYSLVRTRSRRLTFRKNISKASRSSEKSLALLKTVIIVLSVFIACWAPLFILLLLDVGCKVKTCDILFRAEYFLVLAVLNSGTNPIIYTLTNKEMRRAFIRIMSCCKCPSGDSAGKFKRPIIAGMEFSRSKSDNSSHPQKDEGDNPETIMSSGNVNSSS
Chain of Sphingosine 1-phosphate receptor 5 (Q9H228 whole entry): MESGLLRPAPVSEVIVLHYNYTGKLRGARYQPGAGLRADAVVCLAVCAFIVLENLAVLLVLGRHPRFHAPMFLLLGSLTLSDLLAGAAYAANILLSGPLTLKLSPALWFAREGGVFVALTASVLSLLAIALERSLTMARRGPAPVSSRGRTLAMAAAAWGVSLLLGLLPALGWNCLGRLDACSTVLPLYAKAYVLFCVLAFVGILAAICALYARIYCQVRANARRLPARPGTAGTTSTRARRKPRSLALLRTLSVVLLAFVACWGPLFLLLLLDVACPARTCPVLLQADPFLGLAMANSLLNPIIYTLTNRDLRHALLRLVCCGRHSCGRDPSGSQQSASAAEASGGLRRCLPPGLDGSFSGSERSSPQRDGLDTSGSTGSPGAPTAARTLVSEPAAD
Chain of Delta-type opioid receptor (P41143 whole entry): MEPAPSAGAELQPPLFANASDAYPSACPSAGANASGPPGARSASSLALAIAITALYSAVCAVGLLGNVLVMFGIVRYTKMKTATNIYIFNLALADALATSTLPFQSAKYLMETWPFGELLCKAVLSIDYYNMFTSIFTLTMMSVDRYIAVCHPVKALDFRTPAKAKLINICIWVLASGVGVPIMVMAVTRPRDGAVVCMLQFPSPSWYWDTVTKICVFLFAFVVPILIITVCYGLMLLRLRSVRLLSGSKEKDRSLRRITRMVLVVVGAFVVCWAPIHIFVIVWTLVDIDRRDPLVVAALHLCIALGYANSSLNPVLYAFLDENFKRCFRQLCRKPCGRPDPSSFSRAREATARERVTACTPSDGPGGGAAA

- EC50 [1]: 0.0886 µM (active)
- EC50 [2]: 0.339 µM (active)
- EC50 [3]: > 50 µM (inactive)
- EC50 [4]: 0.113 µM (active)
- EC50 [5]: > 50 µM (inactive)
SMILES: C/N=C1\SC(=Cc2cc(C)n(Cc3c(F)cccc3F)c2C)C(=O)N1OC

- EC50 [6]: > 32 µM (inactive)
- EC50 [7]: > 20 µM (inactive)
- EC50 [8]: 9.5 µM (active)
- EC50 [9]: > 32 µM (inactive)
SMILES: Cc1cc(C)c(CSc2nnc(-c3ccccn3)n2Cc2cccs2)c(C)c1

- IC50 [10]: 7.65 µM (active)
- IC50 [11]: 7.33 µM (active)
- IC50 [12]: 8.58 µM (active)
SMILES: N/C(=N\N=C\c1ccc2c(c1)OCO2)SC1CC(=O)N(c2ccc(C(=O)O)cc2)C1=O (configuration not stated)

SMILES: O=C(O)Cc1ccc(O)c(O)c1 [3,4-DIHYDROXYPHENYLACETIC ACID]
- IC50 [13]: 4.17 µM (active)
- EC50 [14]: > 100 µM (inactive)
- IC50 [15]: > 100 µM (inactive)
- EC50 [16]: 28.9 µM (active)
- EC50 [17]: 49.8 µM (active)
